How the values were obtained:
[1] = biological target: T1, interaction between PD-1 and PD-L1 expressed on cell surfaces (Jurkat/NF-κB-luc/PD1 cells cocultured with Raji-PD-L1 cells) (Homo sapiens, UniProt Q9NZQ7); assay: Jurkat reporter gene cellular assay; format: cell-based; settings: OKT3 1 μg/mL stimulation, 6 hrs, activation fold vs DMSO
T1 construct: expressed in transfected cells; host or cells: Raji cells (PD-L1); Jurkat cells (PD-1, NF-κB-luc reporter)
Protocol: The effect of compounds of the examples of the present invention on the interaction between PD-1 and PD-L1 expressed on cell surfaces, and the related influence on T cell functions, were determined by a Jurkat reporter gene cellular assay.
Briefly, the reporter gene plasmid of NF-κB-luc and the plasmid of human PD-1 were transfected into Jurkat cells to establish a stably transfected cell line capable of stably expressing both PD-1 and NF-κB-Luc reporter genes; the expression level of PD-1 on the cell surface was confirmed by flow cytometry; and the expression of the reporter gene was confirmed via the response of the reporter gene stimulated by OKT-3 and Raji cells.
In addition, the plasmid of human PD-L1 was transfected into Raji cells to obtain a cell line capable of stably expressing PD-L1. Jurkat/NF-κB-luc/PD1 cells and Raji-PD-L1 cells were then cocultured and stimulated with OKT-3. On this basis, the compounds were added, and the enhancement of the signal pathway of T cell activation by the inhibitory effect of the compounds on the interaction between PD-1 and PD-L1 was evaluated by readings of reporter gene responses. The specific experimental process was as follows:
1) 30 μL of compound or antibody solution was added to each well of a white 96-well plate (Corning, 3610) at different diluted concentrations, and 10 μL of OKT3 (Biolegend, 317326) was then added (the final concentration of OKT3: 1 μg/mL);
2) 20 μL of Raji-PD-L1 cell suspension was added to each well with 5*10^4 cells for each well, and was incubated in an incubator for 20 min;
3) 20 μL of Jurkat/NF-Kb-luc/PD-1 cell suspension was added to each well with 5*10^4 cells for each well, and was well mixed, and 6 hrs later, Bright-glo (Promega, E2620) was applied and plates were read on Envision;
4) The reading of each well treated with the compound was compared with the reading of each well treated with DMSO to obtain the activation fold of the compound; and
5) EC50 values of compounds of the examples of the present invention were determined by non-linear regression analysis of activation folds at different compound concentrations.

[2] = biological target: T2, interaction between PD-1 and PD-L1 (Homo sapiens, UniProt Q9NZQ7); assay: PD1-PDL1 HTRF binding activity test; settings: Cisbio PD-1/PD-L1 binding assay kit; percent inhibition vs DMSO
T2 construct: purchased Cisbio 64ICP01PEG or 64ICP01PEH
Protocol: The effect of compounds of the examples of the present invention on the interaction between PD-1 and PD-L1 was determined by the PD-1/PD-L1 binding assay kit from Cisbio (#64ICP01PEG or 64ICP01PEH). The detailed experimental process was as follows:
1) Pre-diluted compound solution, 4 μL of Tag1-PD-L1 and 4 μL of Tag2-PD1 were added to each well of a 384-well plate;
2) After the mixture was incubated at room temperature for 15 min, 5 μL of anti-Tag1-Eu3+ antibody and 5 μL of anti-Tag2-XL665 antibody were then added;
3) After incubated for 2 hrs at room temperature or overnight at 4° C., plates were read on Envision of Perkin Elmer; and readings at 665 nm and 620 nm were recorded, and the ratio of the two readings was taken as a reading for each well;
4) The reading of each well after compound treatment was compared with the reading of DMSO treated wells to obtain the percent inhibition of the compound; and
5) IC50 values of compounds of the examples of the present invention were determined by non-linear regression analysis of percent inhibition at different compound concentrations.

T1 sequence (Q9NZQ7 19-290): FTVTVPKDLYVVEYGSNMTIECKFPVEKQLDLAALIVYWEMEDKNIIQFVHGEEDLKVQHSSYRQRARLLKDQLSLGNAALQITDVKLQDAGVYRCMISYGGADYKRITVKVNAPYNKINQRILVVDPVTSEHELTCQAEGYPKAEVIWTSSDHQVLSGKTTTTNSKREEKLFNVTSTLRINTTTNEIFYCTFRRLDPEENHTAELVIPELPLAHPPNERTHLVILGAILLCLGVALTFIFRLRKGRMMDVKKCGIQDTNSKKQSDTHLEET
T2 sequence (Q9NZQ7 19-238 limits assumed): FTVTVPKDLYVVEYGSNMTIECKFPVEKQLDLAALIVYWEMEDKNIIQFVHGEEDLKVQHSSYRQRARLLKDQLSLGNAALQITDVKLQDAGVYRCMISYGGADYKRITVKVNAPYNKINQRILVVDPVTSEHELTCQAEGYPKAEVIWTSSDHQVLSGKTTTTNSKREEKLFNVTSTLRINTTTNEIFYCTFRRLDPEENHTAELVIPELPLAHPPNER

Row | Structure (SMILES) | EC50 [1] [nM] | IC50 [2] [nM]
1 | Cc1c(NC(=O)c2cc(C3CC3)c(CNC3CCOCC3)cn2)cccc1-c1cccc(NC(=O)c2cc(C3CC3)c(CN3CCCC[C@H]3C(=O)O)cn2)c1C [Example 24, (S)-1-((4-cyclopropyl-6-((3′-(4-cyclopropyl-5-(((tetrahydro-2H-pyran-4-yl)amino)methyl)picolinamido)-2,2′-dimethyl-[1,1′-biphenyl]-3-yl)carbamoyl)pyridin-3-yl)methyl)piperidine-2-carboxylic acid] | 52 | 0.91
2 | Cc1c(NC(=O)c2cc(C3CC3)c(CN3CCC[C@@H]3CO)cn2)cccc1-c1cccc(NC(=O)c2cc(C3CC3)c(CN3CCCC[C@H]3C(=O)O)cn2)c1C [Example 28, (S)-1-((4-cyclopropyl-6-((3′-(4-cyclopropyl-5-(((R)-2-(hydroxymethyl)pyrolidin-1-yl)methyl)picolinamido)-2, 2′-dimethyl-[1,1′-biphenyl]-3-yl)carbamoyl)pyridin-3-yl)methyl)piperidine-2-carboxylic acid] | 35.3 | 4.17
3 | CCOC(=O)[C@@H](CO)NCc1cnc(C(=O)Nc2cccc(-c3cccc(NC(=O)c4cc(C5CC5)c(CN5CCCC[C@H]5C(=O)O)cn4)c3C)c2C)cc1C1CC1 [Example 29, (S)-1-((4-cyclopropyl-6-((3′-(4-cyclopropyl-5-((((R)-1-ethoxy-3-hydroxy-1-oxopropan-2-yl)amino)methyl)picolinamido)-2,2′-dimethyl-[1,1′-biphenyl]-3-yl)carbamoyl)pyridin-3-yl)methyl)piperidine-2-carboxylic acid] | 115 | 1.61
4 | CCOC(=O)[C@H](CO)NCc1cnc(C(=O)Nc2cccc(-c3cccc(NC(=O)c4cc(C5CC5)c(CN5CCCC[C@H]5C(=O)O)cn4)c3C)c2C)cc1C1CC1 [Example 31, (S)-1-((4-cyclopropyl-6-((3′-(4-cyclopropyl-5-((((S)-1-ethoxy-3-hydroxy-1-oxopropan-2-yl)amino)methyl)picolinamido)-2,2′-dimethyl-[1,1′-biphenyl]-3-yl)carbamoyl)pyridin-3-yl)methyl) piperidine-2-carboxylic acid] | 42.6 | 2.57
5 | Cc1c(NC(=O)c2cc(C3CC3)c(CN[C@@H](CO)C(=O)O)cn2)cccc1-c1cccc(NC(=O)c2cc(C3CC3)c(CN3CCCC[C@H]3C(=O)O)cn2)c1C [Example 32, (S)-1-((6-((3′-(5-((((S)-1-carboxy-2-hydroxyethyl)amino)methyl)-4-cyclopropylpicolinamido)-2,2′-dimethyl-[1,1′-biphenyl]-3-yl)carbamoyl)-4-cyclopropylpyridin-3-yl)methyl) piperidine-2-carboxylic acid] | 44.8 | 1.85
6 | CCOC(=O)[C@@H](CO)NCc1cnc(C(=O)Nc2cccc(-c3cccc(NC(=O)c4cc(C5CC5)c(CNCCO)cn4)c3C)c2C)cc1C1CC1 [Example 35-1, ethyl ((4-cyclopropyl-6-((3′-(4-cyclopropyl-5-(((2-hydroxyethyl)amino)methyl)picolinamido)-2,2′-dimethyl-[1,1′-biphenyl]-3-yl)carbamoyl)pyridin-3-yl)methyl)-D-serinate] | 231 | 3.03
7 | Cc1c(NC(=O)c2cc(C3CC3)c(CN[C@H](CO)C(=O)O)cn2)cccc1-c1cccc(NC(=O)c2cc(C3CC3)c(CN3CC(C)(O)C3)cn2)c1C [Example 36, ((4-cyclopropyl-6-((3′-(4-cyclopropyl-5-((3-hydroxy-3-methylazetidin-1-yl)methyl)picolinamido)-2,2′-dimethyl-[1,1′-biphenyl]-3-yl)carbamoyl)pyridin-3-yl)methyl)-D-serine] | 52 | 0.72
8 | CCOC(=O)[C@H](CO)NCc1cnc(C(=O)Nc2cccc(-c3cccc(NC(=O)c4cc(C5CC5)c(CNCCO)cn4)c3C)c2C)cc1C1CC1 [Example 37-1, Ethyl ((4-cyclopropyl-6-((3′-(4-cyclopropyl-5-(((2-hydroxyethyl)amino)methyl)picolinamido)-2,2′-dimethyl-[1,1′-biphenyl]-3-yl)carbamoyl)pyridin-3-yl)methyl)-L-serinate] | 265 | 5.58
9 | Cc1c(NC(=O)c2cc(C3CC3)c(CN[C@H](C)CO)cn2)cccc1-c1cccc(NC(=O)c2cc(C3CC3)c(CN[C@H](CO)C(=O)O)cn2)c1C [Example 38, ((4-cyclopropyl-6-((3′-(4-cyclopropyl-5-((((R)-1-hydroxypropan-2-yl)amino)methyl)picolinamido)-2,2-dimethyl-[1,1′-biphenyl]-3-yl)carbamoyl)pyridin-3-yl)methyl)-D-serine] | 37.3 | 0.67
10 | CCOC(=O)[C@@H](CO)NCc1cnc(C(=O)Nc2cccc(-c3cccc(NC(=O)c4cc(C5CC5)c(CN[C@H](C)CO)cn4)c3C)c2C)cc1C1CC1 [Example 38-1, Ethyl ((4-cyclopropyl-6-((3′-(4-cyclopropyl-5-((((R)-1-hydroxypropan-2-yl)amino)methyl)picolinamido)-2,2′-dimethyl-[1,1′-biphenyl]-3-yl)carbamoyl)pyridin-3-yl)methyl)-D-serinate] | 219 | 4.77

Now those with a lower EC50 [1], led by results:

Row | EC50 [1] [nM] | IC50 [2] [nM] | Structure (SMILES)
11 | 8.7 | 0.91 | Cc1c(NC(=O)c2cc(C3CC3)c(CN[C@H]3CCOC3)cn2)cccc1-c1cccc(NC(=O)c2cc(C3CC3)c(CN3CCCC[C@H]3C(=O)O)cn2)c1C [Example 25, (S)-1-((4-cyclopropyl-6-((3′-(4-cyclopropyl-5-((((S)-tetrahydrofuran-3-yl)amino)methyl)picolinamido)-2,2′-dimethyl-[1,1′-biphenyl]-3-yl)carbamoyl)pyridin-3-yl)methyl)piperidine-2-carboxylic acid]
12 | 27.3 | 2.62 | Cc1c(NC(=O)c2cc(C3CC3)c(CN3CCC[C@H]3CO)cn2)cccc1-c1cccc(NC(=O)c2cc(C3CC3)c(CN3CCCC[C@H]3C(=O)O)cn2)c1C [Example 27, (S)-1-((4-cyclopropyl-6-((3′-(4-cyclopropyl-5-(((S)-2-(hydroxymethyl)pyrolidin-1-yl)methyl)picolinamido)-2, 2′-dimethyl-[1,1′-biphenyl]-3-yl)carbamoyl)pyridin-3-yl)methyl)piperidine-2-carboxylic acid]
13 | 18.1 | 0.97 | Cc1c(NC(=O)c2cc(C3CC3)c(CN[C@H](CO)C(=O)O)cn2)cccc1-c1cccc(NC(=O)c2cc(C3CC3)c(CN3CCCC[C@H]3C(=O)O)cn2)c1C [Example 30, (S)-1-((6-((3′-(5-((((R)-1-carboxy-2-hydroxyethyl)amino)methyl)-4-cyclopropylpicolinamido)-2,2′-dimethyl-[1,1′-biphenyl]-3-yl)carbamoyl)-4-cyclopropylpyridin-3-yl)methyl)piperidine-2-carboxylic acid]
14 | 28.6 | 1.95 | Cc1c(NC(=O)c2cc(C3CC3)c(CNCCO)cn2)cccc1-c1cccc(NC(=O)c2cc(C3CC3)c(CN[C@H](CO)C(=O)O)cn2)c1C [Example 35, ((4-cyclopropyl-6-((3′-(4-cyclopropyl-5-(((2-hydroxyethyl)amino)methyl)picolinamido)-2,2′-dimethyl-[1,1′-biphenyl]-3-yl)carbamoyl)pyridin-3-yl)methyl)-D-serine]
15 | 25.2 | 0.95 | Cc1c(NC(=O)c2cc(C3CC3)c(CNCCO)cn2)cccc1-c1cccc(NC(=O)c2cc(C3CC3)c(CN[C@@H](CO)C(=O)O)cn2)c1C [Example 37, ((4-cyclopropyl-6-((3′-(4-cyclopropyl-5-(((2-hydroxyethyl)amino)methyl)picolinamido)-2,2′-dimethyl-[1,1′-biphenyl]-3-yl)carbamoyl)pyridin-3-yl)methyl)-L-serine]
